pIC50: −log10 of the molar value.
Experiments:
Format in all cases: biochemical
Akt3 = Akt3 (Homo sapiens, UniProt Q9Y243); assay: AlphaScreen kinase assay, Akt3; conditions: read-out: IC50, activity toward kinase Akt3
Source text: AlphaScreen assay was used to screen additional kinases. The assay is similarly dependent on the phosphorylation of a peptide substrate. In this assay, an antibody that recognizes phosphorylated substrate is bound to an acceptor bead. The peptide substrate is attached to biotin, which binds to a donor head that contains streptavidin. Thus phosphorylated substrate is bound by antibody and streptavidin, bringing the donor and acceptor heads into close proximity when kinase is not inhibited. The donor produces singlet oxygen which results in emission from the acceptor when they are in close proximity. Conversely, when kinase is inhibited, the donor and acceptor beads are not associated and the emission from the acceptor is reduced.
AlphaScreen assays were done using compounds dissolved in DMSO to a concentration of 20 mM. The compounds were diluted accordingly to the desired final concentrations in each sample well, using 1:3 serial dilution for a total of 8 concentration points.

B-Raf V600E = target: T1, B-Raf V600E (Homo sapiens, UniProt P15056, V600E); assay: AlphaScreen kinase assay, B-Raf V600E; conditions: read-out: IC50, activity toward kinase B-Raf V600E
T1 construct: P4254. pFastBacBD-CDC37 BRAF D437-K722-X, V600E; His6 with pFastBac HT leader (TEV site) (N); made in house; host or cells: Sf9 (baculovirus; chaperone CDC37 co-expressed)

c-Raf-1 = target: T2, c-Raf-1 (Homo sapiens, UniProt P04049); assay: AlphaScreen kinase assay, c-Raf-1; conditions: read-out: IC50, activity toward kinase c-Raf-1
T2 construct: purchased Upstate Biotechnology

Jnk3 = target: T3, Jnk3 (Homo sapiens, UniProt P53779); assay: AlphaScreen kinase assay, Jnk3; conditions: read-out: IC50, activity toward kinase Jnk3
T3 construct: purchased Upstate Biotechnology

Flt1 = target: T4, Flt1 (Homo sapiens, UniProt P17948); assay: AlphaScreen kinase assay, Flt1; conditions: read-out: IC50, activity toward kinase Flt1
T4 construct: P1826.pETN6 BI-PTP FLT1 M799-D1165-X WT; His6 (N); made in house; host or cells: E. coli (PTP1B co-expressed)
T4 sequence (P17948 with tags, fused parts or gaps): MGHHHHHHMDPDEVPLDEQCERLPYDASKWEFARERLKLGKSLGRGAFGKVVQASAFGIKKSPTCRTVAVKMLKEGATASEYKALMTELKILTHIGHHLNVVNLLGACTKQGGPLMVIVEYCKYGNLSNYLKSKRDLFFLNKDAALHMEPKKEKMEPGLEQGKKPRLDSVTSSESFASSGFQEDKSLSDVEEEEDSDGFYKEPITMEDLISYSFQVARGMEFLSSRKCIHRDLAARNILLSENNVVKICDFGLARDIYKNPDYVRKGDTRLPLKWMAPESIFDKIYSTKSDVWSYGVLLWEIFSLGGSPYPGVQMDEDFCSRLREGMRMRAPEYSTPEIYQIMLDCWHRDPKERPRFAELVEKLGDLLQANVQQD

Kit = target: T5, Kit (Homo sapiens, UniProt P10721); assay: AlphaScreen kinase assay, Kit; conditions: read-out: IC50, activity toward kinase Kit
T5 construct: P1332.N6 BI PTP KIT M552-K948-X COD; His6 (N); made in house; host or cells: E. coli (PTP1B co-expressed)
T5 sequence (P10721 with tags, fused parts or gaps): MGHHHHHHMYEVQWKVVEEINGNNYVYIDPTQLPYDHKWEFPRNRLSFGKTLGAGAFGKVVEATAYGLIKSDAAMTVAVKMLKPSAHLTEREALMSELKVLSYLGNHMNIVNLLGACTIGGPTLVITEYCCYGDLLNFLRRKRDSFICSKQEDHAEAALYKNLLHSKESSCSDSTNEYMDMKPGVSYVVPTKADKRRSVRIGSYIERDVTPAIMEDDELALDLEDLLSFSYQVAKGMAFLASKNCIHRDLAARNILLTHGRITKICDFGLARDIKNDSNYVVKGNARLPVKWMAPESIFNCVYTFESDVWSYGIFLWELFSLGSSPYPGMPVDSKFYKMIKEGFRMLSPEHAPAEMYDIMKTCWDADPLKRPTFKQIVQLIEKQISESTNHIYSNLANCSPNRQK

T1 sequence (P15056 with tags, fused parts or gaps V600E): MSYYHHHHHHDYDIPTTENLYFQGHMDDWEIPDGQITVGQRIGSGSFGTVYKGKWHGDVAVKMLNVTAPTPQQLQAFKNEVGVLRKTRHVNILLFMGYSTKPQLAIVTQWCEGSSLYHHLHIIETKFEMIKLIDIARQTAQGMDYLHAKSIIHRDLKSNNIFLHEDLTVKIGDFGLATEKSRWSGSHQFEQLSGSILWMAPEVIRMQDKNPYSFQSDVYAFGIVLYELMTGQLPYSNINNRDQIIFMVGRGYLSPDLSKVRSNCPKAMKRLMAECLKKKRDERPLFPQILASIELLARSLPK
Akt3, sequence (Q9Y243 whole entry): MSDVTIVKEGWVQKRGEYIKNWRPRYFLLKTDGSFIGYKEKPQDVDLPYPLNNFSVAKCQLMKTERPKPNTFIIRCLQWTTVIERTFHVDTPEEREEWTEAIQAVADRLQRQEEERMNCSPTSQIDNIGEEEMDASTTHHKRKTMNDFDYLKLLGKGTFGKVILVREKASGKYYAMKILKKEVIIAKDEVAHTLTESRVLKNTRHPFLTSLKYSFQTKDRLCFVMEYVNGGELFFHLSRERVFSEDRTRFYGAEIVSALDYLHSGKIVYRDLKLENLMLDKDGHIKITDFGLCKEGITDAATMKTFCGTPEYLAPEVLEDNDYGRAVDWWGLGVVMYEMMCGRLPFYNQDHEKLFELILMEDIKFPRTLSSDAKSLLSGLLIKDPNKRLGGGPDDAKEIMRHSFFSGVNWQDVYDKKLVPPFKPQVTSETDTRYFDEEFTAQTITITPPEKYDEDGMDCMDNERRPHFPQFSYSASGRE
T2 sequence (P04049 whole entry): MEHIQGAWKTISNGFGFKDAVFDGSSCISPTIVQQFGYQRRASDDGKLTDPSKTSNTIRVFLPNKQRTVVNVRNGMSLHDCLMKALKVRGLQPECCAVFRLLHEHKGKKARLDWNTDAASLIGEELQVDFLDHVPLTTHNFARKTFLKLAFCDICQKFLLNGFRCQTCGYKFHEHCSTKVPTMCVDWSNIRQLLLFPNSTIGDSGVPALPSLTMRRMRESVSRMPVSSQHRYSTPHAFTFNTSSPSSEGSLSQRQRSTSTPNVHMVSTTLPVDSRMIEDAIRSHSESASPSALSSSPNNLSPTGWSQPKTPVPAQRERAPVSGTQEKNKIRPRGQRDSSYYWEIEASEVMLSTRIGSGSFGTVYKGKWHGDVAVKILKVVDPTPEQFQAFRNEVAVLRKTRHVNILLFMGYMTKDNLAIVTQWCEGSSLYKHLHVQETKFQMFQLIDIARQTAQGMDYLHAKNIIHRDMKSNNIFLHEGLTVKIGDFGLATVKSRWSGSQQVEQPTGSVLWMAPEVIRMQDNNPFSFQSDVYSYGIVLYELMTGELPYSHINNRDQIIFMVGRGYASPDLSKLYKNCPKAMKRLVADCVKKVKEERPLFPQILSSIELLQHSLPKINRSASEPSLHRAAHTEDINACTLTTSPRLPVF
T3 sequence (P53779 whole entry): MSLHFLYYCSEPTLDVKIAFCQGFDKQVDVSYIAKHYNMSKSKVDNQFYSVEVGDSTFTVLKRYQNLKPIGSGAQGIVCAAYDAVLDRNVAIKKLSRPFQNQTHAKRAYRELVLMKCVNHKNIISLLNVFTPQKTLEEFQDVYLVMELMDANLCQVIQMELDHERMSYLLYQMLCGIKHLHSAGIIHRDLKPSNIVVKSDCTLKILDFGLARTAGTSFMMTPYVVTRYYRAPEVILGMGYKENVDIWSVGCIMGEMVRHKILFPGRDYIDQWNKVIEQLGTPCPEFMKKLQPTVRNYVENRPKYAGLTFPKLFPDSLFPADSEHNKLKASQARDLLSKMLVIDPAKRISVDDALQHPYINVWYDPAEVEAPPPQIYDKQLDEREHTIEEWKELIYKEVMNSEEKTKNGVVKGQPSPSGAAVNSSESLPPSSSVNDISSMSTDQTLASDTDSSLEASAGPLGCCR

Row | Structure (SMILES) | pIC50 (Akt3) | further results
1 | CCCc1ccc(Nc2cnc3[nH]ccc3c2)cc1 [Compound P-1043] | ≥ 5.00 | pIC50 (B-Raf V600E): ≥ 5.00
2 | Fc1cccc(Nc2ccnc3[nH]ccc23)c1 [Compound P-1047] | ≥ 5.00 | pIC50 (c-Raf-1): ≥ 5.00
3 | Cc1cccc(Nc2ccnc3[nH]ccc23)c1 [Compound P-1060] | ≥ 5.00 | –
4 | c1cc(Nc2ccc3c(c2)OCO3)c2cc[nH]c2n1 [Compound P-1062] | ≥ 5.00 | –
5 | CCOC(c1ccc(N(Cc2ccc(Cl)cc2)C(=O)OC(C)(C)C)nc1)c1c[nH]c2ncccc12 (stereo not shown) [Compound P-1139] | ≥ 5.00 | pIC50 (B-Raf V600E): ≥ 5.00
6 | Fc1ccc(Nc2ccnc3[nH]ccc23)cc1 [Compound P-1145] | ≥ 5.00 | pIC50 (c-Raf-1): ≥ 5.00
7 | c1cc(Nc2ccc(-c3cnco3)cc2)c2cc[nH]c2n1 [Compound P-1147] | ≥ 5.00 | pIC50 (Flt1): ≥ 5.00
8 | COc1ccc(Nc2ccnc3[nH]ccc23)cc1 [Compound P-1155] | ≥ 5.00 | –
9 | Oc1ccc(Nc2ccnc3[nH]ccc23)cc1 [Compound P-1172] | ≥ 5.00 | –
10 | c1ccc(Nc2ccnc3[nH]ccc23)cc1 [Compound P-1224] | ≥ 5.00 | –

The next lines start with results.

Row | pIC50 (Akt3) | Structure (SMILES) | further results
11 | ≥ 5.00 | CC(C)c1ccc(Nc2cnc3[nH]ccc3c2)cc1 [Compound P-1039] | –
12 | ≥ 5.00 | c1cc2cc(Nc3ccc4ncsc4c3)cnc2[nH]1 [Compound P-1040] | –
13 | ≥ 5.00 | Clc1ccc(Nc2cnc3[nH]ccc3c2)cc1 [Compound P-1082] | pIC50 (Jnk3): ≥ 5.00; pIC50 (Flt1): ≥ 5.00; pIC50 (B-Raf V600E): ≥ 5.00; pIC50 (Kit): ≥ 5.00
14 | ≥ 5.00 | COc1ccc(Nc2cnc3[nH]ccc3c2)cc1 [Compound P-1095] | –
15 | ≥ 5.00 | CSc1cccc(Nc2cnc3[nH]ccc3c2)c1 [Compound P-1150] | –
16 | ≥ 5.00 | CSc1ccc(Nc2cnc3[nH]ccc3c2)cc1 [Compound P-1158] | –

— patent US8415469B2, “Compounds and methods for kinase modulation, and indications therefor” (Plexxikon Inc., priority 2005, dated 2013)
